Experimental findings from patent US20230390273A1, “4-PHENYL-TETRAHYDROPYRIDINE DERIVATIVES FOR TREATING HEARING DISEASES” (CILCARE DEV, priority 2021, published 2023) are described below.

Where a name gives a salt, the structure may show the parent alone.

Data set [1] in a line: Solubility of paliroden and xaliproden in trans-tympanic compositions and in water (Example 2). The class given is physicochemical. On the procedure: Eight compositions compatible with trans-tympanic injections were prepared: four thermoreversible gel compositions and four lipid-based mucoadhesive solutions. These eight compositions were prepared both with paliroden fumarate as active agent, and with xaliproden hydrochloride as active agent. The solubility of respectively paliroden and xaliproden in the compositions was measured.

Data set [2] relates to synaptic ribbons in inner hair cells. The experiment in a line: Ribbon synapse immunostaining and counting in cochlea, delayed treatment (Example 7). It is filed as in vivo, male Wistar rats. Conditions: for Number of pre-synaptic and post-synaptic elements (CtBP2 and Homer) per IHC / Number of colocalized ribbons per IHC: 25 kHz, vs traumatized vehicle and NaCl groups, 2 days and 9 days post-noise; for Number of colocalized ribbons per IHC: statistically significant for Paliroden; for Synapse loss in the inner hair cells (FIG. 8): regions coding high frequency sounds, printed 2 hours and 8 days post-noise. On the procedure:
At T+28 days, after DPOAE/ABR measures, 10 cochlea (all eight (8) left cochleae and two (2) right cochleae taken randomly) per group were rapidly sampled and immediately fixed by PFA perfusion (through the round and oval windows with PFA 4% after creating a small hole at the apex) in order to performed ribbon synapse immunostaining and analysis. Cochleae were fixed for 1 hour in a 4% PFA solution and decalcified in undiluted RDO (10 mL/cochlea for a minimum of 2 hours). The membranous and sensory spiral containing the organ of Corti are dissected out as a flat surface preparation under a dissecting microscope and immunolabelled with appropriate antibodies: • Vglut3 (Vglut3-Guinea Pig IgG; #135 204, Synaptic systems and Anti-Guinea Pig IgG (H+L), #A21450; Thermo Fisher Scientific 647 nm Far-Red) to stain inner hair cell bodies (vesicular glutamate transporter). • Homer (Homer-Rabbit IgG; #GTX103278; Genetex and Anti-Rabbit IgG (H+L) #A11008 Thermo Fisher Scientific 568 nm Red) to stain dendritic proteins of auditory nerve fibers connecting to IHC (post-synaptic). • CtBP2 (CtBP2-Mouse-IgG1; #612044; BD Transduction Laboratories and Anti-Mouse IgG1, #A21121, Thermo Fisher Scientific 488 Green) to stain the ribeye protein as pre-synaptic marker in IHC. • Phalloidin (Alexa Fluor™ Plus 405 Phalloidin; #A30104; Thermo Fisher Scientific 405 Blue).
Images were acquired on a confocal microscope and the slides were analyzed to i) evaluate by visual observation the presence of OHC and IHC (based on nuclei staining with CtBP2 and HC cell body staining with phalloidin) and ii) count the number of synaptic ribbons in selected inner hair cells in cochlea regions coding sound of selected frequency (16 kHz, 25 kHz and 32 kHz).
The number of pre- (CtBP2) and post-synaptic (Homer) labeled spots was counted using Imaris software in 3 dimensions for each image. Co-localization of pre- and post-synaptic elements was defined as a distance of maximum […] between CtBP2- and Homer-labeled spots, using an in-house Matlab program to calculate the distances between CtBP2 and Homer labels from the x, y, and z coordinates.

For a further data set, the system named is male Wistar rats. The experiment in a line: ABR thresholds after acoustic trauma and trans-tympanic treatment (Example 5). It is filed as in vivo. On the procedure: Fourty-three male Wistar rats were selected and distributed to treatment and control groups, each group comprising between 6 to 9 rats at the start of the study. Randomization was performed using the ABR threshold in the left ear at 16 kHz as a criterium. The “sham” group comprises 7 rats, which received neither noise exposure nor trans-tympanic injection. […] The “traumatized” group comprises 9 rats, which received noise exposure only and no treatment. The “traumatized vehicle” group comprises 7 rats, which received noise exposure and a trans-tympanic injection of placebo (a composition comprising only Cremophor EL®). The “traumatized paliroden” group comprises 7 rats, which received noise exposure and a trans-tympanic injection of a composition comprising paliroden (fumarate salt), corresponding to composition 7P described in Example 2. The “traumatized xaliproden” group comprises 7 rats, which received noise exposure and a trans-tympanic injection of a composition comprising xaliproden (hydrochloride salt), corresponding to composition 7X described in Example 2.
All animals (except sham group) received a bilateral noise exposure at a noise band of 8-16 kHz at 115 dB SPL RMS during 2 hours (from time T0 to time T0+2 hours).
30 μL of compositions comprising either paliroden or xaliproden as active agent were administered once in both ears of each rat of the treatment groups (30 μL per ear) via trans-tympanic administration by injection between the eardrum and the round window by means of a needle which crosses the eardrum, 4 hours after the start of the noise exposure (i.e. at T0+4 hours, thus 2 hours after the end of the noise exposure), under isoflurane anesthesia. The compositions correspond respectively to compositions 7P and 7X described in Example 2, i.e. they comprise only Cremophor EL® as excipient and either paliroden (fumarate salt) or xaliproden (hydrochloride salt) as active agent. The dose of paliroden (fumarate salt) that is administered is 240 μg per ear of the rats belonging to the “traumatized paliroden” group (240 μg in the 30 μL that are injected via trans-tympanic route by injection between the eardrum and the round window by means of a needle which crosses the eardrum). The dose of xaliproden (hydrochloride salt) that is administered is 192 μg per ear of the rats belonging to the “traumatized xaliproden” group (192 μg in the 30 μL that are injected via trans-tympanic route by injection between the eardrum and the round window by means of a needle which crosses the eardrum). […]

[3] abbreviates: one day following noise exposure, from 25 to 32 kHz, paliroden 240 μg/ear, xaliproden 192 μg/ear.

Broadly, the solubility is the concentration that dissolves in the medium under given conditions. Read a low solubility as a poorly soluble substance. With `FC(F)(F)c1cccc(C2=CCN(CCc3ccc(-c4ccccc4)cc3)CC2)c1` [paliroden (fumarate salt), 1-[2-(4-biphenylyl)ethyl]-4-(3-trifluoromethylphenyl)-1,2,3,6-tetrahydropyridine], the solubility in data set [1] is below 100 µg/mL. In data set [2], the “Number of pre-synaptic and post-synaptic elements (CtBP2 and Homer) per IHC” value is given as “increase”; the “Number of colocalized ribbons per IHC” value was “increase”; the “Synapse loss in the inner hair cells (FIG. 8)” value was “significantly repair synapse loss”. Besides, the “ABR Threshold shifts reduction in comparison to the traumatized vehicle group” value (from here on “ABR Threshold shifts reduction”) in the data set with male Wistar rats (7 days post-noise, from 16 to 32 kHz, paliroden 240 μg/ear) is reported as 15-20 dB. In addition, the “ABR Threshold shifts reduction” value with male Wistar rats (setting [3]) was “approximately 10 dB”.
In data set [1], `FC(F)(F)c1cccc(C2=CCN(CCc3ccc4ccccc4c3)CC2)c1` [xaliproden (hydrochloride salt), 1-[2-(2-naphthyl)ethyl]-4-(3-trifluoromethylphenyl)-1,2,3,6-tetrahydropyridine] showed a solubility below 100 µg/mL. In addition, in data set [2], the “Number of pre-synaptic and post-synaptic elements (CtBP2 and Homer) per IHC” value is recorded as “increase”; the “Number of colocalized ribbons per IHC” value is on record as “increase”; the “Synapse loss in the inner hair cells (FIG. 8)” value is “significantly repair synapse loss”. Moreover, in the data set with male Wistar rats (7 days post-noise, from 25 to 32 kHz, xaliproden 192 μg/ear), the “ABR Threshold shifts reduction” value is listed as “approximately 15 dB”. The “ABR Threshold shifts reduction” value in the data set with male Wistar rats (setting [3]) is given as “approximately 10 dB”.
